Data as given in US8415486B2, “IAP inhibitors” (TetraLogic Pharmaceuticals Corp., priority 2009, dated 2013).
pKd: −log10 of the molar value.

What was measured:
[1] = system: ovarian cancer cell line, SK-OV-3; assay: SK-OV-3 cell growth inhibition (MTT, 72 hrs); assay type: cell-based; settings: Homo sapiens, concentration giving 50% cell survival, reported as ranges
Method: Compounds of the invention also were tested for their ability to inhibit the growth of an ovarian cancer cell line, SK-OV-3. A known assay previously used for measuring cell growth (as described in Hansen, M. B., Nielsen, S. E., and Berg, K. (1989) J. Immunol. Methods 119, 203-210 and incorporated herein by reference in its entirety) was used. Briefly, SK-OV-3 cells are seeded in 96-well plates in McCoy's medium containing 10% fetal bovine serum albumin (5,000 per well) and incubated overnight at 37° C. The next day, test compounds are added at various concentrations (0.003-10 μM) and the plates are incubated at 37° C. for an additional 72 hrs. This incubation time was considered to be optimal for measuring inhibitory effects of the different compounds tested. 50 microliters of 5 mg/mL MTT reagent is added to each well and the plates are incubated at 37° C. for another three (3) hours. At the end of the three (3) hour incubation period, 50 microliters of DMSO is added to each well to dissolve cells and the optical density (OD) of the wells is measured with a microplate reader (Victor^2 1420, Wallac, Finland) at 535 nm. Cell survival (CS) was calculated using the following equation: CS=(OD treated well/mean OD control wells)×100%.
The CC50 (reported in the following tables), is defined as the drug concentration that results in 50% cell survival (CS), and is derived by calculating the point where the dose-response curve crosses the 50% CS point using GraphPad Prism. The reported CC50 values are supplied as ranges (A=<0.1 μM, B=0.1 μM to 1 μM, C=>1 μM to 10 μM, D=>10 μM).

[2] = biological target: T1, cIAP-1 BIR-3 (Homo sapiens, UniProt Q13490); assay: Fluorescence polarization binding to cIAP-1 BIR-3 with labeled peptide AbuRPF-K(5-Fam)-NH2; settings: 40 nM BIR3, 5 nM labeled peptide, reported as ranges, read-out: KD (c-IAP-1 BIR3)
T1 construct: 40 nM of the respective IAP BIR3
Method: (§1) The binding affinities of the compounds are reported as a KD value (μM). Briefly, various concentrations of test peptides were mixed with 5 nM of the fluorescently labeled peptide (i.e., a mutated N-terminal Smac peptide—AbuRPF-K(5-Fam)-NH2) and 40 nM of the respective IAP BIR3 for 15 min at RT in […] of 0.1M Potassium Phosphate buffer, pH 7.5 containing 100 mg/ml bovine g-globulin. Following incubation, the polarization values (mP) were measured on a Victor2V (available from PerkinElmer Life Sciences) using a 485 nm excitation filter and a 520 nm emission filter. The reported binding affinities (KD values) are supplied as ranges (A=<0.1 μM, B=0.1 μM to 1 μM, C=>1 μM to 10 μM, D=>10 μM).

[3] = biological target: T2, XIAP BIR-3 (Homo sapiens, UniProt P98170); assay: Fluorescence polarization binding to XIAP BIR-3 with labeled peptide AbuRPF-K(5-Fam)-NH2; settings: 40 nM BIR3, 5 nM labeled peptide, reported as ranges
T2 construct: 40 nM of the respective IAP BIR3
Method: as §1

T2 sequence (P98170 241-356 limits assumed): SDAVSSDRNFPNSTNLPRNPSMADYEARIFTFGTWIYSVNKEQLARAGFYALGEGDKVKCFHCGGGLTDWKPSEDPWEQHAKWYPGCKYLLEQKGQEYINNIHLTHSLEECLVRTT
T1 sequence (Q13490 253-363 limits assumed): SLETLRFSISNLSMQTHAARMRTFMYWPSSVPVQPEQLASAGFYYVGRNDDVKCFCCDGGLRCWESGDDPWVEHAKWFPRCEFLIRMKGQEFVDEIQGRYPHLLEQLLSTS

pKd [2] | pKd [3] | Compound | CC50 [1] [nM]
> 7.00 | > 7.00 | CN[C@@H](C)C(=O)N[C@H](C(=O)N1CC[C@@H]2[C@H]1[C@@H](Oc1ccc(F)c(F)c1)CN2S(C)(=O)=O)C(C)(C)C [Example 19, N-{1-[6-(3,4-Difluoro-phenoxy)-4-methanesulfonyl-hexahydro-pyrrolo[3,2-b]pyrrole-1-carbonyl]-2,2-dimethyl-propyl}-2-methylamino-propionamide] | < 100
> 7.00 | 6.00 to 7.00 | CN[C@@H](C)C(=O)N[C@H](C(=O)N1CC[C@@H]2[C@H]1[C@@H](COc1ccc(F)c(F)c1)CN2c1ncccn1)C(C)(C)C [Example 72, N-{1-[6-(3,4-Difluoro-phenoxymethyl)-4-pyrimidin-2-yl-hexahydro-pyrrolo[3,2-b]pyrrole-1-carbonyl]-2,2-dimethylpropyl}-2-methylamino-propionamide] | < 100
> 7.00 | > 7.00 | CN[C@@H](C)C(=O)N[C@H](C(=O)N1CC[C@@H]2[C@H]1[C@@H](Oc1ccc(F)cc1)CN2C(=O)NC(C)C)C(C)(C)C [Example 29, 4-[3,3-Dimethyl-2-(2-methylamino-propionylamino)-butyryl]-3-(4-fluoro-phenoxy)-hexahydro-pyrrolo[3,2-b]pyrrole-1-carboxylic acid isopropylamide] | < 100
> 7.00 | > 7.00 | CN[C@@H](C)C(=O)N[C@H](C(=O)N1CC[C@@H]2[C@H]1[C@@H](COc1ccc(F)c(F)c1)CN2C(=O)CC(C)C)C(C)(C)C [Example 71, N-{1-[6-(3,4-Difluoro-phenoxymethyl)-4-(3-methyl-butyryl)-hexahydro-pyrrolo[3,2-b]pyrrole-1-carbonyl]-2,2-dimethyl-propyl}-2-methylamino propionamide] | < 100
> 7.00 | 6.00 to 7.00 | CN[C@@H](C)C(=O)N[C@H](C(=O)N1CC[C@@H]2[C@H]1[C@@H](OC(=O)Nc1cccc3ccccc13)CN2C(=O)NC(C)C)C(C)(C)C [Example 49, Naphthalen-1-yl-carbamic acid 4-[3,3-dimethyl-2-(2-methylamino-propionylamino)-butyryl]-1-isopropylcarbamoyl-octahydro-pyrrolo[3,2-b]pyrrol-3-yl ester] | < 100
> 7.00 | 6.00 to 7.00 | CN[C@@H](C)C(=O)N[C@H](C(=O)N1CC[C@H]2NC[C@H](Oc3ccccc3-c3ccccc3)[C@H]21)C1CCCCC1 [Example 4, N-{2-[6-(Biphenyl-2-yloxy)-hexahydro-pyrrolo[3,2-b]pyrrol-1-yl]-1-cyclohexyl-2-oxo-ethyl}-2-methylamino-propionamide] | 100 to 1000
> 7.00 | > 7.00 | CN[C@@H](C)C(=O)N[C@H](C(=O)N1CC[C@@H]2[C@H]1[C@@H](Oc1ccc(F)c(F)c1)CN2C(=O)NC(C)C)C(C)(C)C [Example 24, 3-(3,4-Difluoro-phenoxy)-4-[3,3-dimethyl-2-(2-methylamino-propionylamino)-butyryl]-hexahydro-pyrrolo[3,2-b]pyrrole-1-carboxylic acid isopropylamide] | < 100
> 7.00 | > 7.00 | CN[C@@H](C)C(=O)N[C@H](C(=O)N1CC[C@@H]2[C@H]1[C@@H](Oc1ccc(F)c(F)c1)CN2S(C)(=O)=O)C(C)C [Example 12, N-{1-[6-(3,4-Difluoro-phenoxy)-4-methanesulfonyl-hexahydro-pyrrolo[3,2-b]pyrrole-1-carbonyl]-2-methyl-propyl}-2-methylamino-propionamide] | < 100
> 7.00 | 6.00 to 7.00 | CN[C@@H](C)C(=O)N[C@H](C(=O)N1CC[C@H]2NC[C@H](OCc3ccccc3)[C@H]21)C1CCCCC1 [Example 31, (S)—N—((S)-2-((3aR,6S,6aS)-6-(benzyloxy)hexahydropyrrolo[3,2-b]pyrrol-1(2H)-yl)-1-cyclohexyl-2-oxoethyl)-2-(methylamino)propanamide] | 100 to 1000
